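96-well plates; 48 h exposure; 5 concentrations. Endpoints by linear interpolation between flanking doses. Not reached: highest tested concentration assigned. GI50 = concentration required for 50% inhibition of growth.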 Active and inactive are the calls of the source. Cut-off read from the data, not from the text of the source: active = GI50 up to about 1.1 µM and inactive = higher.
Experiments:
Assay in all cases: growth of human tumour cells (NCI), 48 h
[1] = tested on: HT-29
[2] = tested on: SK-MEL-28
[3] = tested on: HOP-62
[4] = tested on: MCF7
[5] = tested on: COLO 205
[6] = tested on: OVCAR-3
[7] = tested on: SK-OV-3
[8] = tested on: U-251
[9] = tested on: LOX IMVI
[10] = tested on: KM12
[11] = tested on: HOP-92
[12] = tested on: Hs-578T
[13] = tested on: OVCAR-8
[14] = tested on: DMS-114
[15] = tested on: HCC 2998
[16] = tested on: SK-MEL-5
[17] = tested on: MDA-MB-435
[18] = tested on: XF498
[19] = tested on: SF-295
[20] = tested on: 786-0
[21] = tested on: RXF 393
[22] = tested on: CCRF-CEM
[23] = tested on: SN12C
[24] = tested on: EKVX
[25] = tested on: CAKI-1
[26] = tested on: RPMI-8226
[27] = tested on: K562
[28] = tested on: UACC-62
[29] = tested on: UACC-257
[30] = tested on: TK-10
[31] = tested on: HL-60
[32] = tested on: DMS-273
[33] = tested on: BT-549
[34] = tested on: OVCAR-5
[35] = tested on: NCI/ADR-RES
[36] = tested on: NCI-H460
[37] = tested on: DLD-1
[38] = tested on: DU-145
[39] = tested on: SF-268
[40] = tested on: UO-31
[41] = tested on: OVCAR-4
[42] = tested on: LXFL 529
[43] = tested on: HCT-15
[44] = tested on: M14
[45] = tested on: NCI-H226
[46] = tested on: MOLT-4
[47] = tested on: SNB-75
[48] = tested on: MDA-MB-231
[49] = tested on: NCI-H23
[50] = tested on: Malme-3M
[51] = tested on: KM-20L2
[52] = tested on: HCT-116
[53] = tested on: SNB-78
[54] = tested on: PC-3
[55] = tested on: SNB-19
[56] = tested on: MDA-N
[57] = tested on: SW-620
[58] = tested on: IGROV-1
[59] = tested on: NCI-H522
[60] = tested on: SF-539
[61] = tested on: T47D
[62] = tested on: A498
[63] = tested on: SR
[64] = tested on: ACHN
[65] = tested on: A549
[66] = tested on: M19-MEL
[67] = tested on: SK-MEL-2

CC12C=CC(=O)C=C1CCC1C3CCC(O)(C(=O)CO)C3(C)CC(O)C12F (configuration not stated)
GI50 [1]: > 100 µM (inactive) | GI50 [2]: > 100 µM (inactive) | GI50 [3]: > 100 µM (inactive) | GI50 [4]: > 100 µM (inactive) | GI50 [5]: > 100 µM (inactive) | GI50 [6]: > 100 µM (inactive) | GI50 [7]: > 4.88 µM (inactive) | GI50 [8]: > 100 µM (inactive) | GI50 [9]: > 100 µM (inactive) | GI50 [10]: > 100 µM (inactive) | GI50 [11]: > 100 µM (inactive) | GI50 [12]: > 100 µM (inactive) | GI50 [13]: > 100 µM (inactive) | GI50 [14]: > 100 µM (inactive) | GI50 [15]: > 100 µM (inactive) | GI50 [16]: > 100 µM (inactive) | GI50 [17]: > 100 µM (inactive) | GI50 [18]: > 100 µM (inactive) | GI50 [19]: > 100 µM (inactive) | GI50 [20]: > 100 µM (inactive) | GI50 [21]: > 100 µM (inactive) | GI50 [22]: 0.536 µM (active) | GI50 [23]: > 100 µM (inactive) | GI50 [24]: 43.5 µM (inactive) | GI50 [25]: > 100 µM (inactive) | GI50 [26]: 17.1 µM (inactive) | GI50 [27]: > 100 µM (inactive) | GI50 [28]: > 100 µM (inactive) | GI50 [29]: > 100 µM (inactive) | GI50 [30]: > 100 µM (inactive) | GI50 [31]: > 100 µM (inactive) | GI50 [32]: > 100 µM (inactive) | GI50 [33]: 95.3 µM (inactive) | GI50 [34]: > 76.4 µM (inactive) | GI50 [35]: > 100 µM (inactive) | GI50 [36]: > 100 µM (inactive) | GI50 [37]: > 100 µM (inactive) | GI50 [38]: > 100 µM (inactive) | GI50 [39]: > 100 µM (inactive) | GI50 [40]: > 100 µM (inactive) | GI50 [41]: > 100 µM (inactive) | GI50 [42]: > 100 µM (inactive) | GI50 [43]: > 100 µM | GI50 [44]: > 100 µM (inactive) | GI50 [45]: > 100 µM (inactive) | GI50 [46]: > 100 µM (inactive) | GI50 [47]: > 100 µM (inactive) | GI50 [48]: > 100 µM (inactive) | GI50 [49]: > 100 µM (inactive) | GI50 [50]: > 100 µM (inactive) | GI50 [51]: > 100 µM (inactive) | GI50 [52]: > 100 µM (inactive) | GI50 [53]: > 100 µM (inactive) | GI50 [54]: > 100 µM (inactive) | GI50 [55]: > 100 µM (inactive) | GI50 [56]: > 100 µM (inactive) | GI50 [57]: > 100 µM (inactive) | GI50 [58]: > 100 µM (inactive) | GI50 [59]: > 100 µM (inactive) | GI50 [60]: > 100 µM (inactive) | GI50 [61]: > 100 µM (inactive) | GI50 [62]: > 100 µM (inactive) | GI50 [63]: > 100 µM (inactive) | GI50 [64]: > 100 µM (inactive) | GI50 [65]: > 100 µM (inactive) | GI50 [66]: > 100 µM (inactive) | GI50 [67]: > 100 µM (inactive)
